Here are results for seven molecules from patent US10005818B2, “Derivative peptide compounds and methods of use” (REALTA HOLDINGS, LLC, priority 2010, dated 2018).

In series [1] the test system is complement activation in factor B-depleted human sera. It is filed as biochemical. As for the experimental part: Peptides were diluted to 0.77 mM in factor B-depleted human sera (Complement Technologies, Inc.) and incubated for 1 hour at 37° C. These peptides were then diluted with GVBS^++ to equal 2.5/s serum, of which 0.25 ml was combined with 0.4 ml of GVBS^++ and 0.1 ml of sensitized sheep red blood cells (RBCs) and again incubated for 1 hour at 37° C. The procedure was stopped by the addition of 4.0 ml of GVBS^−−, centrifuged for 5 minutes at 1,620×g, and the absorbance of the supernatants was read at 412 nm in a spectrophotometer. The percent lysis of each sample was standardized to that of the serum only control.
The final concentration of peptide in factor B-depleted serum was 0.77 mM. Each peptide was evaluated in triplicate and the mean values are reported. […] In the hemolytic assay, soluble peptides are standardized to water and insoluble peptides standardized to DMSO.
Polar Assortant peptides were serially diluted in undiluted factor B-depleted human sera (Complement Technologies, Inc.) and incubated for 1 hour at 37° C. Water, GVBS^++ and DMSO were included as controls. These peptides were then diluted with GVBS^++ to equal 2.5/s serum, of which 0.25 ml was combined with 0.4 ml of GVBS^++ and 0.1 ml of sensitized sheep red blood cells (RBCs) and again incubated for 1 hour at 37° C. The procedure was stopped by the addition of 4.0 ml of GVBS^−−, centrifuged for 5 minutes at 1,620×g, and the absorbance of the supernatants was read at 412 nm in a spectrophotometer. The percent lysis of each sample was standardized to that of the serum only control.
The final concentration of peptide in factor B-depleted serum was 0.77 mM. […] In the hemolytic assay, soluble peptides were standardized to water and insoluble peptides standardized to DMSO.
The final concentration of peptide in factor B-depleted serum was 0.77 mM. […] In the hemolytic assay, soluble peptides are standardized to water and insoluble peptides standardized to DMSO.

A short description of a further series: Solubility in water. It counts as physicochemical.
The mark [2] stands for this setting: Table 5, sarcosine substitution peptides.
Where [3] appears, read: Table 7, PEGylated and sarcosine/alanine substitution peptides.

Square brackets hold non-standard residues; d marks the D form. Ends that are not written are not given here. Peptide text beside a SMILES is read from it. Sar = CNCC(=O)O

With `CC[C@H](C)[C@H](NC(=O)[C@H](CC(C)C)NC(=O)[C@H](C)NC(=O)CNC)C(=O)N[C@@H](CC(C)C)C(=O)N[C@@H](CCC(=O)O)C(=O)N1CCC[C@H]1C(=O)N[C@H](C(=O)N[C@@H](CS)C(=O)N[C@@H](CS)C(=O)N[C@@H](CCC(N)=O)C(=O)N[C@@H](CCC(=O)O)C(=O)N[C@@H](CCCNC(=N)N)C(=O)N[C@@H](C)C(=O)N[C@@H](C)C(=O)O)[C@@H](C)CC` [PA-I1Sar], the “Hemolysis (%)” value in series [1] was found to be 84.49%. In the series “Solubility in water” (setting [2]), the Solubility in water entry is recorded as “No”.
For the molecule `CC[C@H](C)[C@H](N)C(=O)N[C@@H](C)C(=O)N[C@@H](CC(C)C)C(=O)N[C@H](C(=O)N[C@@H](CC(C)C)C(=O)N(C)CC(=O)N1CCC[C@H]1C(=O)N[C@H](C(=O)N(C)CC(=O)N[C@@H](CS)C(=O)N[C@@H](CCC(N)=O)C(=O)N[C@@H](CCC(=O)O)C(=O)N[C@@H](CCCNC(=N)N)C(=O)N[C@@H](C)C(=O)N[C@@H](C)C(=O)O)[C@@H](C)CC)[C@@H](C)CC` [Peptide E6SarC9Sar, IALIL(Sar)PI(Sar)CQERAA] (H-IALIL[Sar]PI[Sar]CQERAA-OH), the “Hemolysis (%)” value in series [1] worked out at 6.21%. The Solubility in water result in the series “Solubility in water” (setting [3]) was “Yes”.
Take “ALILEPICC[Sar]ERAA (cysteine pairing not given here) [PA-Q11Sar]”: in series [1], the “Hemolysis (%)” value is given as 3.02%. Moreover, the Solubility in water entry in “Solubility in water” (setting [2]) is “No”.
Turning to `CC[C@H](C)[C@H](N)C(=O)N[C@@H](C)C(=O)N[C@@H](CC(C)C)C(=O)N[C@H](C(=O)N[C@@H](CC(C)C)C(=O)N[C@@H](CCC(=O)O)C(=O)N(C)CC(=O)N[C@H](C(=O)N(C)CC(=O)N[C@@H](CS)C(=O)N[C@@H](CCC(N)=O)C(=O)N[C@@H](CCC(=O)O)C(=O)N[C@@H](CCCNC(=N)N)C(=O)N[C@@H](C)C(=O)N[C@@H](C)C(=O)O)[C@@H](C)CC)[C@@H](C)CC` [PA-P7SarC9Sar, IALILE(Sar)I(Sar)CQERAA] (H-IALILE[Sar]I[Sar]CQERAA-OH), the “Hemolysis (%)” value in series [1] was 82.72%. Besides, the Solubility in water result in “Solubility in water” (setting [3]) is listed as “Yes”.
With `CC[C@H](C)[C@H](N)C(=O)N[C@@H](C)C(=O)N[C@@H](CC(C)C)C(=O)N[C@H](C(=O)N[C@@H](CC(C)C)C(=O)N[C@@H](CCC(=O)O)C(=O)N1CCC[C@H]1C(=O)N[C@H](C(=O)N(C)CC(=O)N[C@@H](CS)C(=O)N[C@@H](CCC(N)=O)C(=O)N[C@@H](CCC(=O)O)C(=O)N(C)CC(=O)N[C@@H](C)C(=O)N[C@@H](C)C(=O)O)[C@@H](C)CC)[C@@H](C)CC` [Peptide R13SarC9Sar] (H-IALILEPI[Sar]CQE[Sar]AA-OH), in series [1], the “Hemolysis (%)” value came to 84.81%. For the same molecule, in “Solubility in water” (setting [3]), the Solubility in water entry is “No”.
With `CC[C@H](C)[C@H](N)C(=O)N[C@@H](C)C(=O)N(C)CC(=O)N[C@H](C(=O)N[C@@H](CC(C)C)C(=O)N[C@@H](CCC(=O)O)C(=O)N1CCC[C@H]1C(=O)N[C@H](C(=O)N[C@@H](CS)C(=O)N[C@@H](CS)C(=O)N[C@@H](CCC(N)=O)C(=O)N[C@@H](CCC(=O)O)C(=O)N[C@@H](CCCNC(=N)N)C(=O)N[C@@H](C)C(=O)N[C@@H](C)C(=O)O)[C@@H](C)CC)[C@@H](C)CC` [PA-L3Sar] (H-IA[Sar]ILEPICCQERAA-OH; N-terminus and C-terminus assumed), the “Hemolysis (%)” value in series [1] was 87.36%. The Solubility in water entry in “Solubility in water” (setting [2]) was “Yes”.
As for `CC[C@H](C)[C@H](N)C(=O)N[C@@H](C)C(=O)N[C@@H](CC(C)C)C(=O)N[C@H](C(=O)N[C@@H](CC(C)C)C(=O)N[C@@H](C)C(=O)N(C)CC(=O)N[C@H](C(=O)N[C@@H](CS)C(=O)N[C@@H](CS)C(=O)N[C@@H](CCC(N)=O)C(=O)N[C@@H](C)C(=O)N[C@@H](CCCNC(=N)N)C(=O)N[C@@H](C)C(=O)N[C@@H](C)C(=O)O)[C@@H](C)CC)[C@@H](C)CC` [Peptide E6AE12AP7Sar] (H-IALILA[Sar]ICCQARAA-OH; N-terminus and C-terminus assumed), the “Hemolysis (%)” value in series [1] is listed as 4.60%. Besides, in “Solubility in water” (setting [3]), the Solubility in water result is listed as “Yes”.
